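Step 1: Grow cells in 96-well plates. Step 2: Expose to compound for 48 hours at 5 concentrations. Step 3: Interpolate endpoints linearly; if unreached, use highest concentration. GI50 is the concentration that inhibits growth by half.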 Activity calls are given as the source filed them. Rule as the data show it: active = GI50 up to about 1.1 µM and inactive = higher.
Key:
Experiment in all cases: inhibition of tumour cell growth, NCI panel, 48 h
NCI-H460 = system: NCI-H460
HCT-15 = system: HCT-15
RXF 393 = system: RXF 393
MDA-MB-435 = system: MDA-MB-435
M14 = system: M14
K562 = system: K562
LOX IMVI = system: LOX IMVI
SF-268 = system: SF-268
COLO 205 = system: COLO 205
OVCAR-5 = system: OVCAR-5
IGROV-1 = system: IGROV-1
SF-295 = system: SF-295
NCI/ADR-RES = system: NCI/ADR-RES
A549 = system: A549
SK-MEL-5 = system: SK-MEL-5
HT-29 = system: HT-29
SK-OV-3 = system: SK-OV-3
UACC-257 = system: UACC-257
SK-MEL-2 = system: SK-MEL-2

SMILES | GI50 (NCI-H460) | GI50 (HCT-15) [µM] | GI50 (RXF 393) | GI50 (MDA-MB-435) | GI50 (M14) | GI50 (K562) | GI50 (LOX IMVI) | GI50 (SF-268) | GI50 (COLO 205) | GI50 (OVCAR-5) | GI50 (IGROV-1) | GI50 (SF-295) | GI50 (NCI/ADR-RES) | GI50 (A549) | GI50 (SK-MEL-5) | GI50 (HT-29) | GI50 (SK-OV-3) | GI50 (UACC-257) | GI50 (SK-MEL-2)
CCOC(=O)C1=C(C)OC(=O)[C@@]2(OC)C=C(Cl)[C@@]12C | > 100 µM (inactive) | > 100 | > 100 µM (inactive) | > 100 µM (inactive) | > 100 µM (inactive) | > 100 µM (inactive) | > 100 µM (inactive) | > 100 µM (inactive) | > 100 µM (inactive) | > 100 µM (inactive) | > 100 µM (inactive) | > 100 µM (inactive) | > 100 µM (inactive) | > 100 µM (inactive) | > 100 µM (inactive) | > 100 µM (inactive) | > 100 µM (inactive) | > 100 µM (inactive) | –
[O-][n+]1c2cccc(O)c2[n+]([O-])c2cccc(O)c21 | 30.1 µM (inactive) | 46.6 | 60.4 µM (inactive) | > 100 µM (inactive) | > 100 µM (inactive) | 39.2 µM (inactive) | 56.8 µM (inactive) | 31.8 µM (inactive) | 52.8 µM (inactive) | > 100 µM (inactive) | 6.53 µM (inactive) | 57.9 µM (inactive) | 70.8 µM (inactive) | 84.7 µM (inactive) | 53.5 µM (inactive) | > 100 µM (inactive) | 45.7 µM (inactive) | 37.9 µM (inactive) | –
CC(C)(C)C(=O)OC(N)/C=C/c1ccccc1 (stereo not drawn) | > 100 µM (inactive) | > 100 | > 100 µM (inactive) | > 100 µM (inactive) | > 100 µM (inactive) | – | – | – | > 100 µM (inactive) | > 100 µM (inactive) | > 100 µM (inactive) | > 100 µM (inactive) | > 100 µM (inactive) | > 100 µM (inactive) | > 100 µM (inactive) | > 100 µM (inactive) | > 100 µM (inactive) | > 100 µM (inactive) | > 100 µM (inactive)
C=C(C(=O)O)[C@@H]1C[C@@H]2O[C@H]1CC(C)=CCC/C(C)=C/CC[C@@]2(C)O | > 100 µM (inactive) | > 100 | > 100 µM (inactive) | > 100 µM (inactive) | > 100 µM (inactive) | > 100 µM (inactive) | > 100 µM (inactive) | > 100 µM (inactive) | > 100 µM (inactive) | > 100 µM (inactive) | > 100 µM (inactive) | > 100 µM (inactive) | > 100 µM (inactive) | > 100 µM (inactive) | > 100 µM (inactive) | – | – | > 100 µM (inactive) | > 100 µM (inactive)
CC(=O)/N=C1/N(/C=C2\C(=O)Oc3ccccc3C2=O)C(=O)/C(=C/c2cccc(Cl)c2Cl)N1C | – | 9.82 | 31.6 µM (inactive) | 25.6 µM (inactive) | 14.8 µM (inactive) | 10.7 µM (inactive) | 24.6 µM (inactive) | 20.4 µM (inactive) | 31.3 µM (inactive) | 30.3 µM (inactive) | 21.4 µM (inactive) | 34.4 µM (inactive) | 22.5 µM (inactive) | 28.2 µM (inactive) | 12.9 µM (inactive) | 19.1 µM (inactive) | 17.2 µM (inactive) | 39 µM (inactive) | 19.8 µM (inactive)
Cc1nn(-c2ccccc2)c2nc(S)cnc12 | > 100 µM (inactive) | – | > 100 µM (inactive) | > 100 µM (inactive) | > 100 µM (inactive) | > 100 µM (inactive) | > 100 µM (inactive) | > 100 µM (inactive) | – | > 100 µM (inactive) | > 100 µM (inactive) | > 100 µM (inactive) | > 100 µM (inactive) | > 100 µM (inactive) | – | > 100 µM (inactive) | > 100 µM (inactive) | > 100 µM (inactive) | > 100 µM (inactive)
